The numbers were not newly measured in patent US20070059365A1, “Novel formulation of ropinirole” (priority 2003, published 2007), which cites them from elsewhere.

For this data set the following is noted: in vivo.

`CCCN(CCC)CCc1cccc2c1CC(=O)N2.Cl` [ropinirole, 4-(2-di-n-propylaminoethyl)-2(3H)-indolone hydrochloride]: the half-life of ropinirole is 5 to 6 h.
